The NIST ThermoML archive (doi:10.1021/je400835u)

Experiment: xn = mol fraction of the nth substance listed
Conditions: 100 kPa, Liquid; for viscosity: Falling or rolling sphere viscometry; for mass density: Vibrating tube method

CCCCC1CCCCC1 [butylcyclohexane] + CCCCCCCCCC
Conditions | mass density, 293.15 K [kg/m3] | mass density, 298.15 K [kg/m3] | mass density, 303.15 K [kg/m3] | mass density, 308.15 K [kg/m3] | mass density, 313.15 K [kg/m3] | viscosity, 293.15 K [mPa·s] | viscosity, 298.15 K [mPa·s] | viscosity, 303.15 K [mPa·s] | viscosity, 308.15 K [mPa·s] | viscosity, 313.15 K [mPa·s]
x1 = 0.0508 | 733.71 | 729.95 | 726.17 | 722.37 | 718.56 | 0.944 | 0.879 | 0.82 | 0.767 | 0.72
x1 = 0.1001 | 736.83 | 733.07 | 729.29 | 725.5 | 721.69 | 0.956 | 0.89 | 0.831 | 0.778 | 0.73
x1 = 0.1992 | 743.19 | 739.43 | 735.66 | 731.87 | 728.07 | 0.984 | 0.914 | 0.853 | 0.798 | 0.748
x1 = 0.2994 | 749.74 | 745.99 | 742.22 | 738.44 | 734.64 | 1.014 | 0.94 | 0.877 | 0.819 | 0.768
x1 = 0.3996 | 756.42 | 752.67 | 748.91 | 745.13 | 741.34 | 1.047 | 0.969 | 0.903 | 0.842 | 0.789
x1 = 0.5002 | 763.27 | 759.53 | 755.76 | 751.99 | 748.2 | 1.084 | 1.003 | 0.932 | 0.869 | 0.813
x1 = 0.5955 | 769.88 | 766.14 | 762.38 | 758.61 | 754.83 | 1.122 | 1.037 | 0.963 | 0.897 | 0.84
x1 = 0.6988 | 777.19 | 773.45 | 769.7 | 765.93 | 762.15 | 1.166 | 1.078 | 1.001 | 0.931 | 0.871
x1 = 0.8012 | 784.6 | 780.86 | 777.11 | 773.34 | 769.57 | 1.21 | 1.121 | 1.039 | 0.966 | 0.902
x1 = 0.8998 | 791.88 | 788.15 | 784.4 | 780.63 | 776.86 | 1.253 | 1.159 | 1.074 | 0.998 | 0.932
x1 = 0.9497 | 795.63 | 791.89 | 788.14 | 784.37 | 780.61 | 1.275 | 1.178 | 1.091 | 1.013 | 0.946
x1 = 1 | 799.44 | 795.7 | 791.95 | 788.19 | 784.41 | 1.296 | 1.196 | 1.107 | 1.027 | 0.958

CCCCC1CCCCC1 [butylcyclohexane] + CCCCCCCCCCCC
Conditions | mass density, 293.15 K [kg/m3] | mass density, 298.15 K [kg/m3] | mass density, 303.15 K [kg/m3] | mass density, 308.15 K [kg/m3] | mass density, 313.15 K [kg/m3] | viscosity, 293.15 K [mPa·s] | viscosity, 298.15 K [mPa·s] | viscosity, 303.15 K [mPa·s] | viscosity, 308.15 K [mPa·s] | viscosity, 313.15 K [mPa·s]
x1 = 0.0511 | 750.97 | 747.36 | 743.73 | 740.1 | 736.45 | 1.492 | 1.369 | 1.258 | 1.157 | 1.07
x1 = 0.0989 | 752.88 | 749.26 | 745.63 | 741.99 | 738.34 | 1.486 | 1.363 | 1.251 | 1.152 | 1.067
x1 = 0.2004 | 757.06 | 753.44 | 749.8 | 746.15 | 742.5 | 1.467 | 1.346 | 1.238 | 1.14 | 1.056
x1 = 0.3002 | 761.38 | 757.75 | 754.1 | 750.45 | 746.78 | 1.45 | 1.331 | 1.224 | 1.128 | 1.047
x1 = 0.4012 | 765.97 | 762.34 | 758.68 | 755.02 | 751.35 | 1.431 | 1.314 | 1.21 | 1.117 | 1.036
x1 = 0.5005 | 770.74 | 767.1 | 763.43 | 759.76 | 756.07 | 1.415 | 1.298 | 1.196 | 1.106 | 1.026
x1 = 0.6006 | 775.82 | 772.16 | 768.48 | 764.8 | 761.1 | 1.393 | 1.279 | 1.18 | 1.091 | 1.013
x1 = 0.7008 | 781.21 | 777.53 | 773.83 | 770.13 | 766.43 | 1.373 | 1.262 | 1.165 | 1.078 | 1.002
x1 = 0.7998 | 786.85 | 783.16 | 779.45 | 775.73 | 771.99 | 1.351 | 1.244 | 1.15 | 1.064 | 0.99
x1 = 0.8996 | 792.92 | 789.21 | 785.47 | 781.73 | 777.98 | 1.331 | 1.226 | 1.134 | 1.049 | 0.978
x1 = 0.9494 | 796.1 | 792.38 | 788.64 | 784.9 | 781.13 | 1.32 | 1.216 | 1.126 | 1.04 | 0.969
x1 = 1 | 799.44 | 795.7 | 791.95 | 788.19 | 784.41 | 1.296 | 1.196 | 1.107 | 1.027 | 0.958

CCCCC1CCCCC1 [butylcyclohexane] + CCCCCCCCCCCCCC
Conditions | mass density, 293.15 K [kg/m3] | mass density, 298.15 K [kg/m3] | mass density, 303.15 K [kg/m3] | mass density, 308.15 K [kg/m3] | mass density, 313.15 K [kg/m3] | viscosity, 293.15 K [mPa·s] | viscosity, 298.15 K [mPa·s] | viscosity, 303.15 K [mPa·s] | viscosity, 308.15 K [mPa·s] | viscosity, 313.15 K [mPa·s]
x1 = 0.0516 | 764.33 | 760.8 | 757.26 | 753.73 | 750.2 | 2.28 | 2.052 | 1.86 | 1.694 | 1.553
x1 = 0.1 | 765.53 | 762 | 758.46 | 754.92 | 751.38 | 2.234 | 2.011 | 1.823 | 1.662 | 1.523
x1 = 0.2001 | 768.14 | 764.6 | 761.06 | 757.51 | 753.96 | 2.135 | 1.924 | 1.746 | 1.593 | 1.463
x1 = 0.2988 | 770.93 | 767.38 | 763.83 | 760.27 | 756.69 | 2.037 | 1.838 | 1.67 | 1.526 | 1.401
x1 = 0.4001 | 774.02 | 770.46 | 766.89 | 763.31 | 759.72 | 1.934 | 1.749 | 1.592 | 1.457 | 1.341
x1 = 0.498 | 777.26 | 773.68 | 770.08 | 766.49 | 762.88 | 1.834 | 1.662 | 1.517 | 1.391 | 1.282
x1 = 0.6006 | 780.95 | 777.36 | 773.74 | 770.12 | 766.49 | 1.728 | 1.571 | 1.436 | 1.32 | 1.218
x1 = 0.7005 | 784.9 | 781.27 | 777.63 | 773.98 | 770.33 | 1.625 | 1.481 | 1.358 | 1.25 | 1.155
x1 = 0.7999 | 789.23 | 785.57 | 781.9 | 778.21 | 774.53 | 1.521 | 1.391 | 1.279 | 1.18 | 1.092
x1 = 0.9002 | 794.07 | 790.38 | 786.66 | 782.94 | 779.22 | 1.416 | 1.299 | 1.199 | 1.109 | 1.029
x1 = 0.95 | 796.66 | 792.94 | 789.21 | 785.48 | 781.73 | 1.363 | 1.254 | 1.159 | 1.073 | 0.998
x1 = 1 | 799.44 | 795.7 | 791.95 | 788.19 | 784.41 | 1.296 | 1.196 | 1.107 | 1.027 | 0.958
